{
  "source": "paper PMC12406734",
  "about": "“B3GALT6 mutations lead to compromised connective tissue biomechanics in Ehlers-Danlos syndrome” (JCI Insight, 2025)",
  "target": "T1, GlcAT-I (GST-GlcAT-I) (Homo sapiens, UniProt O94766)",
  "T1 construct": "gene B3GAT3; truncated GlcAT-I, GST fusion, E. coli, purified",
  "T1 sequence (O94766 29-335 limits assumed)": "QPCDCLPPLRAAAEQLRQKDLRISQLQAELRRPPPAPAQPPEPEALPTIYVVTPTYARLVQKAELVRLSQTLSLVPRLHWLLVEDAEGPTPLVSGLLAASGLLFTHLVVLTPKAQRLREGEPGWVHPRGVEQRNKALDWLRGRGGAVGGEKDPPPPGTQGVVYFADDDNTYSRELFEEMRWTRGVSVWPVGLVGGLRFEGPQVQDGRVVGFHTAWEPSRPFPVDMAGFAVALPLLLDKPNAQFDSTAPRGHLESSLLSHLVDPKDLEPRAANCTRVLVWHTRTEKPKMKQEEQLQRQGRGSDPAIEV",
  "assay": "UDP-Glo glycosyltransferase assay",
  "assay_type": "biochemical",
  "settings": "acceptor; 5 mM UDP-GlcA, 100 mM sodium acetate pH 6.5, 10 mM MnCl2, 37 °C, 60 min",
  "data": [
    {"molecule": "COc1ccc2ccc(O[C@@H]3OC[C@@H](O[C@@H]4O[C@H](CO)[C@H](O)[C@H](O[C@@H]5O[C@H](CO)[C@H](O)[C@H](O)[C@H]5O)[C@H]4O)[C@H](O)[C@H]3O)cc2c1", "note": "[Gal-Gal-Xyl-OMN]", "values": [
      {"measurement": "UDP-Glo glycosyltransferase assay", "result": "GlcAT-I was highly active towards the trisaccharide Gal-Gal-Xyl-OMN"}
    ]}
  ]
}
